{"source": "patent US20180221306A1", "about": "“PHARMACEUTICAL COMPOSITIONS OF 5-HYDROXY-2-METHYLNAPHTHALENE-1,4-DIONE” (PellFiCure Pharmaceuticals, Inc., priority 2016, published 2018)", "key": {"[1]": {"assay": "Forced degradation: stability of Compound I formulations in selected solvents and Carrier A (HPLC)"}, "[2]": {"test_system": "PTEN-CaP2/H2B-GFP tumors", "assay": "IVM chamber model of castration resistant prostate cancer (CRPC), tumor size", "assay_type": "in vivo, mouse", "description": "Mouse prostate cancer cells PTEN-CaP2 were initially derived from the PTEN-P2 cell line and are homozygous for PTEN deletion. Complete ablation of PTEN results in intrinsic androgen-independence in the PTEN-null model. Although PTEN-CaP2 tumors express AR, they are resistant to castration in the absence of prior exposure to ADT."}, "[3]": {"conditions": "EtOH, 25° C./60% RH, t = 2 week"}}, "data": [{"smiles": "CC1=CC(=O)c2c(O)cccc2C1=O", "note": "[Compound I, 5-hydroxy-2-methylnaphthalene-1,4-dione]", "values": [{"measurement": "Solution Stability in Selected Solvents, Purity", "setting": "[1]; DMSO, 25° C./60% RH, t = 0", "value": 94.08, "unit": "% Area"}, {"measurement": "Solution Stability in Selected Solvents, Purity", "setting": "[1]; DMSO, 25° C./60% RH, t = 1 week", "value": 93.47, "unit": "% Area"}, {"measurement": "Solution Stability in Selected Solvents, Purity", "setting": "[1]; DMSO, 25° C./60% RH, t = 2 week", "value": 92.47, "unit": "% Area"}, {"measurement": "Solution Stability in Selected Solvents, Purity", "setting": "[1]; DMSO, 40° C./75% RH, t = 1 week", "value": 89.28, "unit": "% Area"}, {"measurement": "Solution Stability in Selected Solvents, Purity", "setting": "[1]; DMSO, 40° C./75% RH, t = 2 week", "value": 89.26, "unit": "% Area"}, {"measurement": "Solution Stability in Selected Solvents, Purity", "setting": "[1]; Diluent, 25° C./60% RH, t = 0", "value": 99.77, "unit": "% Area"}, {"measurement": "Solution Stability in Selected Solvents, Purity", "setting": "[1]; Diluent, 25° C./60% RH, t = 1 week", "value": 99.76, "unit": "% Area"}, {"measurement": "Solution Stability in Selected Solvents, Purity", "setting": "[1]; Diluent, 25° C./60% RH, t = 2 week", "value": 99.79, "unit": "% Area"}, {"measurement": "Solution Stability in Selected Solvents, Purity", "setting": "[1]; Diluent, 40° C./75% RH, t = 1 week", "value": 99.81, "unit": "% Area"}, {"measurement": "Solution Stability in Selected Solvents, Purity", "setting": "[1]; Diluent, 40° C./75% RH, t = 2 week", "value": 99.82, "unit": "% Area"}, {"measurement": "Solution Stability in Selected Solvents, Purity", "setting": "[1]; EA (poor chromatography observed with ethyl acetate), 25° C./60% RH, t = 0", "value": 80.16, "unit": "% Area"}, {"measurement": "Solution Stability in Selected Solvents, Purity", "setting": "[1]; EA (poor chromatography), 25° C./60% RH, t = 1 week", "value": 77.38, "unit": "% Area"}, {"measurement": "Solution Stability in Selected Solvents, Purity", "setting": "[1]; EA (poor chromatography), 25° C./60% RH, t = 2 week", "value": 76.03, "unit": "% Area"}, {"measurement": "Solution Stability in Selected Solvents, Purity", "setting": "[1]; EA (poor chromatography), 40° C./75% RH, t = 1 week", "value": 77.28, "unit": "% Area"}, {"measurement": "Solution Stability in Selected Solvents, Purity", "setting": "[1]; EA (poor chromatography), 40° C./75% RH, t = 2 week", "value": 77.13, "unit": "% Area"}, {"measurement": "Solution Stability in Selected Solvents, Purity", "setting": "[1]; EtOH, 25° C./60% RH, t = 0", "value": 99.37, "unit": "% Area"}, {"measurement": "Solution Stability in Selected Solvents, Purity", "setting": "[1]; EtOH, 25° C./60% RH, t = 1 week", "value": 96.08, "unit": "% Area"}, {"measurement": "Solution Stability in Selected Solvents, % Potency", "setting": "[1]; [3]", "value": 93.35, "unit": "%"}, {"measurement": "Solution Stability in Selected Solvents, Purity", "setting": "[1]; [3]", "value": 92.82, "unit": "% Area"}, {"measurement": "Solution Stability in Selected Solvents, Purity", "setting": "[1]; EtOH, 40° C./75% RH, t = 1 week", "value": 91.99, "unit": "% Area"}, {"measurement": "Solution Stability in Selected Solvents, Purity", "setting": "[1]; EtOH, 40° C./75% RH, t = 2 week", "value": 89.39, "unit": "% Area"}, {"measurement": "Solution Stability in Selected Solvents, Purity", "setting": "[1]; IPA, 25° C./60% RH, t = 0", "value": 98.80, "unit": "% Area"}, {"measurement": "Solution Stability in Selected Solvents, Purity", "setting": "[1]; IPA, 25° C./60% RH, t = 1 week", "value": 95.62, "unit": "% Area"}, {"measurement": "Solution Stability in Selected Solvents, Purity", "setting": "[1]; IPA, 25° C./60% RH, t = 2 week", "value": 93.35, "unit": "% Area"}, {"measurement": "Solution Stability in Selected Solvents, Purity", "setting": "[1]; IPA, 40° C./75% RH, t = 1 week", "value": 91.10, "unit": "% Area"}, {"measurement": "Solution Stability in Selected Solvents, Purity", "setting": "[1]; IPA, 40° C./75% RH, t = 2 week", "value": 89.40, "unit": "% Area"}, {"measurement": "Solution Stability in Selected Solvents, Purity", "setting": "[1]; MeOH, 25° C./60% RH, t = 0", "value": 99.32, "unit": "% Area"}, {"measurement": "Solution Stability in Selected Solvents, Purity", "setting": "[1]; MeOH, 25° C./60% RH, t = 1 week", "value": 95.54, "unit": "% Area"}, {"measurement": "Solution Stability in Selected Solvents, Purity", "setting": "[1]; MeOH, 25° C./60% RH, t = 2 week", "value": 88.79, "unit": "% Area"}, {"measurement": "Solution Stability in Selected Solvents, Purity", "setting": "[1]; MeOH, 40° C./75% RH, t = 1 week", "value": 86.56, "unit": "% Area"}, {"measurement": "Solution Stability in Selected Solvents, Purity", "setting": "[1]; MeOH, 40° C./75% RH, t = 2 week", "value": 83.85, "unit": "% Area"}, {"measurement": "Solution Stability in Selected Solvents, Purity", "setting": "[1]; PEG 300, 25° C./60% RH, t = 0", "value": 98.52, "unit": "% Area"}, {"measurement": "Solution Stability in Selected Solvents, Purity", "setting": "[1]; PEG 300, 25° C./60% RH, t = 1 week", "value": 88.59, "unit": "% Area"}, {"measurement": "Solution Stability in Selected Solvents, Purity", "setting": "[1]; PEG 300, 25° C./60% RH, t = 2 week", "value": 80.73, "unit": "% Area"}, {"measurement": "Solution Stability in Selected Solvents, Purity", "setting": "[1]; PEG 300, 40° C./75% RH, t = 1 week", "value": 65.16, "unit": "% Area"}, {"measurement": "Solution Stability in Selected Solvents, Purity", "setting": "[1]; PEG 300, 40° C./75% RH, t = 2 week", "value": 49.31, "unit": "% Area"}, {"measurement": "Solution Stability in Selected Solvents, Purity", "setting": "[1]; PEG 400, 25° C./60% RH, t = 0", "value": 98.33, "unit": "% Area"}, {"measurement": "Solution Stability in Selected Solvents, Purity", "setting": "[1]; PEG 400, 25° C./60% RH, t = 1 week", "value": 88.42, "unit": "% Area"}, {"measurement": "Solution Stability in Selected Solvents, Purity", "setting": "[1]; PEG 400, 25° C./60% RH, t = 2 week", "value": 81.00, "unit": "% Area"}, {"measurement": "Solution Stability in Selected Solvents, Purity", "setting": "[1]; PEG 400, 40° C./75% RH, t = 1 week", "value": 70.08, "unit": "% Area"}, {"measurement": "Solution Stability in Selected Solvents, Purity", "setting": "[1]; PEG 400, 40° C./75% RH, t = 2 week", "value": 49.07, "unit": "% Area"}, {"measurement": "Solution Stability in Selected Solvents, Purity", "setting": "[1]; PG, 25° C./60% RH, t = 0", "value": 99.65, "unit": "% Area"}, {"measurement": "Solution Stability in Selected Solvents, Purity", "setting": "[1]; PG, 25° C./60% RH, t = 1 week", "value": 99.14, "unit": "% Area"}, {"measurement": "Solution Stability in Selected Solvents, Purity", "setting": "[1]; PG, 25° C./60% RH, t = 2 week", "value": 97.81, "unit": "% Area"}, {"measurement": "Solution Stability in Selected Solvents, Purity", "setting": "[1]; PG, 40° C./75% RH, t = 1 week", "value": 97.49, "unit": "% Area"}, {"measurement": "Solution Stability in Selected Solvents, Purity", "setting": "[1]; PG, 40° C./75% RH, t = 2 week", "value": 96.43, "unit": "% Area"}, {"measurement": "Solution Stability in Selected Solvents, Purity", "setting": "[1]; THF, 25° C./60% RH, t = 0", "value": 96.45, "unit": "% Area"}, {"measurement": "Solution Stability in Selected Solvents, Purity", "setting": "[1]; THF, 25° C./60% RH, t = 1 week", "value": 94.19, "unit": "% Area"}, {"measurement": "Solution Stability in Selected Solvents, Purity", "setting": "[1]; THF, 25° C./60% RH, t = 2 week", "value": 91.24, "unit": "% Area"}, {"measurement": "Solution Stability in Selected Solvents, Purity", "setting": "[1]; THF, 40° C./75% RH, t = 1 week", "value": 92.54, "unit": "% Area"}, {"measurement": "Solution Stability in Selected Solvents, % Potency", "setting": "[1]; THF, 40° C./75% RH, t = 2 week", "value": 99.82, "unit": "%"}, {"measurement": "Solution Stability in Selected Solvents, Purity", "setting": "[1]; THF, 40° C./75% RH, t = 2 week", "value": 89.34, "unit": "% Area"}, {"measurement": "Compound I lost", "setting": "[1]; Tween-20 or Tween-80 surfactant formulations", "value": "≥ 50", "unit": "%"}, {"measurement": "Stability of formulations of Compound I in PEG", "setting": "5 mg/g", "value": 50, "unit": "%"}, {"measurement": "Stability of the formulation in Carrier A (sesame oil), Potency as Amount", "setting": "3 day, 4.6 mg/mL", "value": 4200, "unit": "µg/mL"}, {"measurement": "Tumor size relative to initial size", "setting": "[2]; combination of Compound I and castration", "value": 157, "unit": "%"}, {"measurement": "Tumor size relative to initial size", "setting": "[2]; oral formulation of Compound I alone (680% castrated, 656% untreated)", "value": 293, "unit": "%"}, {"measurement": "Effectiveness of combination with castration vs Compound I alone", "setting": "[2]; p=0.048", "value": "twice as effective"}]}]}
